Patent publication US20220330594A1 (WisTa Laboratories Ltd., priority 2019, published 2022)
Counter-ions that a name gives are not always drawn.

Key:
Mitochondrial complex IV = test: Direct measurement of mitochondrial complex IV activity after treatment; format: in vivo; conditions: wild type mice
Procedure: (§1) The treatment schedule used to study the negative interaction between symptomatic treatments and LMTM was designed to model the clinical situation in which subjects are first treated chronically with a cholinesterase inhibitor or memantine before receiving LMTM. In what follows, we summarise some of the key results obtained for the AChEI, rivastigmine. Wild-type and L1 mice (n=7-16 for each group) were pre-treated with rivastigmine (0.1 or 0.5 mg/kg/day) or memantine (2 or 20 mg/kg/day) or vehicle for 5 weeks by gavage. For the following 6 weeks, LMTM (5 and 15 mg/kg) or vehicle were added to this daily treatment regime, also by gavage. Animals were tested behaviourly during weeks 10 and 11 using a problem solving task in the open field water maze and then sacrificed for immunohistochemical and other tissue analyses.

[1] = system: ACh levels in the hippocampus; test: Hippocampal ACh microdialysis with rivastigmine and scopolamine in the perfusion fluid; format: in vivo, wild type mice
Description: Under the condition of cholinesterase inhibition used in these experiments (a very small amount of a cholinesterase inhibitor, 100 nanomolar rivastigmine, added to the perfusion fluid), ACh levels in the hippocampus rise, and when they rise strongly enough, they limit additional ACh release by activating pre-synaptic muscarinic receptors of the M2/M4 subtype (so-called negative feedback receptors).
In this situation, adding scopolamine ([…]) to the perfusion fluid blocks these presynaptic receptors and, as a consequence, ACh levels rise by 3-5 fold. The fact that LMTM is not additive with rivastigmine in these experiments supports the conclusion that LMTM has a different mechanism of action from rivastigmine. In other words, although LMTM has been described as being a weak inhibitor of cholinesterases in high concentrations, the present effects seem to be unrelated to cholinesterase inhibition, because there is no additive effect with small quantities of rivastigmine.

tau transgenic L1 mice = test: Treatment effects of LMTM and rivastigmine in tau transgenic L1 mice; format: in vivo; conditions: results not shown
Description: In the L1 mouse model which was used in some of the present studies, there is over-expression of a three-repeat tau fragment encompassing residues 296-390 of the 2N4R tau isoform under the control of the Thy 1 promotor in an NMRI mouse strain (WO2002/059150). This fragment corresponds to the segment of tau first identified within the proteolytically stable core of the PHF (Wischik et al., 1988a; Wischik et al., 1988b) and recently confirmed by cryo-electronmicroscopy of PHFs in AD and tau filaments in Pick's disease (Fitzpatrick et al., 2017; Falcon et al., 2018).
The treatment schedule used to study the negative interaction between symptomatic treatments and LMTM was designed to model the clinical situation in which subjects are first treated chronically with a cholinesterase inhibitor or memantine before receiving LMTM. In what follows, we summarise some of the key results obtained for the AChEI, rivastigmine. […]
For measurement of acetylcholine (ACh) levels in hippocampus, animals (wild-type or L1) were treated with LMTM (5 mg/kg/day for 2 weeks) after prior treatment for 2 weeks with or without rivastigmine (0.5 mg/kg/day). […] Levels of ACh were measured in hippocampus using an implanted microdialysis probe and HPLC analysis of the extracellular fluid.

wild-type mice = test: Behaviour: problem solving task in the open field water maze; format: in vivo
Procedure: as §1

[2] = system: acetylcholine (ACh) levels in hippocampus; test: Hippocampal acetylcholine levels by implanted microdialysis probe and HPLC; format: in vivo; conditions: wild-type mice
Procedure: […] Rivastigmine was administered subcutaneously with an Alzet minipump whereas LMTM was administered by oral gavage. Levels of ACh were measured in hippocampus using an implanted microdialysis probe and HPLC analysis of the extracellular fluid.
Data are presented as group averages and standard errors of mean and were analysed using parametric statistics, with alpha set to 0.05.

synaptophysin = test: Quantitative immunohistochemistry of synaptophysin in brain sections; format: in vivo; conditions: wild-type mice
Procedure: Wild-type and L1 mice (n=7-16 for each group) were pre-treated with rivastigmine (0.1 or 0.5 mg/kg/day) or memantine (2 or 20 mg/kg/day) or vehicle for 5 weeks by gavage. For the following 6 weeks, LMTM (5 and 15 mg/kg) or vehicle were added to this daily treatment regime, also by gavage. Animals were tested behaviourly during weeks 10 and 11 using a problem solving task in the open field water maze and then sacrificed for immunohistochemical and other tissue analyses.

[3] = LMTM alone 5 or 15 mg/kg/day, approximate rounded percentage

Row | Structure (SMILES) | complex IV activity following LMTM treatment (Mitochondrial complex IV) | effect on ACh levels in scopolamine experiments ([1]; wild type mice, 100 nanomolar rivastigmine in the perfusion fluid, scopolamine blocking M2/M4 receptors) | treatment effects in L1 mice compared with wild-type mice (tau transgenic L1 mice) | spatial recognition memory (wild-type mice) | increase in basal ACh levels in hippocampus ([2]; LMTM 5 mg/kg/day for 2 weeks, oral gavage, significant (FIG. 1A)) [fold] | ACh release, ↑ (increase) [2, 3] | Synaptophysin, ↑ (increase) (synaptophysin; [3]) | increase in mean synaptophysin levels (synaptophysin; mean of hippocampus, visual cortex, diagonal band and septum, LMTM alone (FIG. 1B)) [fold] | rise in ACh levels in the hippocampus ([1]; scopolamine (μM) added to perfusion fluid containing 100 nanomolar rivastigmine)
1 | CN(C)c1ccc2c(c1)Sc1cc(N(C)C)ccc1N2 [LMTM, hydromethylthionine mesylate] | did not show any increase | less than that seen with rivastigmine alone | larger and more generalised | not associated with improvement | 2 | ↑ × 200% | ↑ × 300% | 3 | 
2 | CN1[C@@H]2C[C@@H](OC(=O)[C@H](CO)c3ccccc3)C[C@H]1[C@@H]1O[C@@H]12 [scopolamine, reference compound] |  |  |  |  |  |  |  |  | 3-5 fold
